Read-outs that look alike come from different tables or passages of the source.
Key:
female CD-1 mice [1] = assay: Acute toxicity: blood biochemical parameters on the final day (nephrotoxicity, hepatotoxicity); conditions: blood sample on final day (day 14)
Procedure: (§1) 250 mg of carboxymethylcellulose are dissolved in 50 ml of a 5% glucose solution. 5 ml aliquots containing 0.5% of Tween 80 are emulsified with the quinoline salts (final concentrations at 0.4 mg/ml, 4 mg/ml and 40 mg/ml). The emulsions are subsequently homogenized. The emulsions are administered by force feeding in a single dose to four groups of five female CD-1 mice at the concentrations of 10 mg/kg, 100 mg/kg and 1000 mg/kg and without compounds (control group). The control group receives a glucose-comprising emulsion containing 0.5% of carboxymethyl-cellulose (CMC) and […]. The behavior of the animals is observed and the number of deaths is counted after 1 min, 15 min, 30 min, 1 h, 4 h, 8 h and each day for 14 days. On the final day, a blood sample is taken. Biochemical analyses are carried out in order to evaluate the nephrotoxicity and the hepatotoxicity, the levels of creatinine, of aspartate aminotransferase (ASAT), of alanine aminotransferase (ALAI) and of cholesterol being quantitatively determined.

[2] = Chemical stability of solutions in five solvents, HPLC daily for 9 days; conditions: 200 μg/ml in methanol, pH 7 buffer, camphorsulfonic acid pH 2, DMSO, CMC 0.5%/Tween 80 0.5%, 4° C., ambient with light, ambient without light
Procedure: The quinoline salts are dissolved at a concentration of 200 μg/ml in five different solvents: methanol, an aqueous solution buffered at pH 7, an aqueous camphorsulfonic acid solution at pH 2, dimethyl sulfoxide (DMSO) and an aqueous solution comprising a mixture of carboxymethylcellulose at 0.5% and Tween 80 at 0.5%.
Each preparation is divided into three parts which are stored under different conditions of temperature and of luminosity: at 4° C., at ambient temperature under the influence of light and at ambient temperature with the exclusion of light. The samples are diluted (1:20) and then analyzed by high performance liquid chromotography (HPLC) daily for 9 days.
Use was made, in carrying out the high performance liquid chromotography analysis, of a Waters LC system comprising a model 600 pump with inline degassing and, as detector, a 996 photodiode detector device. The acquisition of the data was carried out by the use of the Empower® program (Waters, France). The column used was a Symmetry Shield RP18, 3.5 μm 4.6×150 mm. […] The UV absorbance spectra were recorded at between 210 and 400 nm. The chromatogram of the propyl salt was recorded at 233 nm and that of the alcohol derivative at 249 nm.

female CD-1 mice [3] = conditions: 5 animals
Procedure: as §1

[4] = Hygroscopicity: water vapour sorption/desorption isotherm (DVS-1000); format: physicochemical; conditions: 25° C./60% relative humidity, in comparison with weight equilibrated at 0% relative humidity at 25° C.
Procedure: The hygroscopicity of the 2-(n-propyl)quinoline camsylate crystals is evaluated by studying the sorption/desorption isotherm of water in the vapor phase on a device of DVS-1000 type sold by SMS.
The sample, analyzed in a quartz pan with a specimen size of the order of 10 mg, is subjected to two cycles of variation in relative humidity (RH) which are linked together continuously. Each cycle comprises two stages, adsorption and then desorption of water, during which the relative humidity in the measuring chamber is increased and then decreased gradually according to the conditions described in table 2.
The sample is first dried under a stream of filtered dry air until its weight has stabilized. The stages of adsorption and of desorption are then made successively. The carrier gas used to maintain the relative humidity at a set percentage is air dried upstream of the device and delivered at a flow rate of 100 ml/min. During the progression of the program, the temperature in the measuring chamber is maintained at 25° C.

Compound: CC1(C)C2CCC1(CS(=O)(=O)O)C(=O)C2.CCCc1ccc2ccccc2n1 (centres unmarked) [Camphorsulfonate salt of 2-(n-propyl)quinoline]
- ALAT (female CD-1 mice [1]; dose 10 mg/kg oral): 215 ± 123 IU/l
- ASAT (female CD-1 mice [1]; dose 10 mg/kg oral): 410 ± 57 IU/l
- Cholesterol (female CD-1 mice [1]; dose 10 mg/kg oral): 3.9 ± 0.3 mM
- Creatinine (female CD-1 mice [1]; dose 10 mg/kg oral): <18 µM
- ALAT (female CD-1 mice [1]; dose 100 mg/kg oral): 168 ± 67 IU/l
- ASAT (female CD-1 mice [1]; dose 100 mg/kg oral): 515 ± 72 IU/l
- Cholesterol (female CD-1 mice [1]; dose 100 mg/kg oral): 4.1 ± 0.5 mM
- Creatinine (female CD-1 mice [1]; dose 100 mg/kg oral): <18 µM
- ALAT (female CD-1 mice [1]; dose 1 g/kg oral): 199 ± 89 IU/l
- ASAT (female CD-1 mice [1]; dose 1 g/kg oral): 422 ± 187 IU/l
- Cholesterol (female CD-1 mice [1]; dose 1 g/kg oral): 3.8 ± 0.4 mM
- Creatinine (female CD-1 mice [1]; dose 1 g/kg oral): <18 µM
- chemical stability in solution ([2]; listed as 2-(n-propyl)quinoline in the form of the camphorsulfonic acid salt): chemical stability compatible with the development of a medicament
- chemical stability in solution ([2]; listed as propyl salt): stable whatever the conditions tested
- acute toxicity observation (female CD-1 mice [3]; single dose 10 mg/kg oral route): absence of toxicity
- acute toxicity observation (female CD-1 mice [3]; single dose 100 mg/kg oral route): absence of toxicity
- mice showing signs of lethargy (female CD-1 mice [3]; single dose 1 g/kg oral route, t15 min): t15 min = 3 mice showed
- lethargic mice (female CD-1 mice [3]; single dose 1 g/kg oral route, t1 h): t1 h = 2 lethargic mice
- acute toxicity observation (female CD-1 mice [3]; single dose 1 g/kg oral route, t4 h): t4 h = absence of toxicity
- increase in weight (water sorption) [4]: less than 2%

Reference: patent publication US8344145B2, “Salts of 2-substituted quinolines” (priority 2008, dated 2013)
